What was measured:
CDK4/CycD = CDK4/CycD (Homo sapiens (Human), UniProt P11802); assay: CDK4/CycD kinase inhibition (Biological Table 1); assay type: biochemical
CDK6/CycD3 = CDK6/CycD3 (Homo sapiens (Human), UniProt Q00534); assay: CDK6/CycD3 kinase inhibition (Biological Table 1); assay type: biochemical
CDK2/CycE = CDK2/CycE (Homo sapiens (Human), UniProt P24941); assay: CDK2/CycE kinase inhibition (Biological Table 1); assay type: biochemical
CDK2/CycA = CDK2/CycA (Homo sapiens (Human), UniProt P24941); assay: CDK2/CycA kinase inhibition (Biological Table 1); assay type: biochemical
CDK5/p35 = CDK5/p35 (Homo sapiens (Human), UniProt Q00535); assay: CDK5/p35 kinase inhibition (Biological Table 1); assay type: biochemical
CDK5/p25 = CDK5/p25 (Homo sapiens (Human), UniProt Q00535); assay: CDK5/p25 kinase inhibition (Biological Table 2); assay type: biochemical
CDK7/CycH/MAT1 = CDK7/CycH/MAT1 (Homo sapiens (Human), UniProt P50613); assay: CDK7/CycH/MAT1 kinase inhibition (Biological Table 2); assay type: biochemical
CDK9/CycT = CDK9/CycT (Homo sapiens (Human), UniProt P50750); assay: CDK9/CycT kinase inhibition (Biological Table 2); assay type: biochemical
CDK4/CyclinD1 = CDK4/CyclinD1 (Homo sapiens (Human), UniProt P11802); assay: CDK4/cyclinD1 kinase assay, microfluidic kinase detection (Caliper, Nanosyn); assay type: biochemical; details: 12-point dose-response, ATP at Km (200 μM), enzyme 1 nM, incubation 10 hr; read-out: CDK4/Cyclin D1
Description: (§1) Selected compounds disclosed herein were tested in CDK4/cyclinD1, CDK2/CycA and CDK2/cyclinE kinase assays by Nanosyn (Santa Clara, Calif.) to determine their inhibitory effect on these CDKs. The assays were performed using microfluidic kinase detection technology (Caliper Assay Platform). The compounds were tested in 12-point dose-response format in singlicate at Km for ATP. Phosphoacceptor substrate peptide concentration used was 1 μM for all assays and Staurosporine was used as the reference compound for all assays. Specifics of each assay are as described below:
CDK4/CyclinD1: Enzyme concentration: 1 nM; ATP concentration: 200 μM; Incubation time: 10 hr.

CDK6/Cyclin D3 = CDK6/Cyclin D3 (Homo sapiens (Human), UniProt Q00534); assay: CDK6/Cyclin D3 kinase assay (Biological Table 3); assay type: biochemical
Description: [Worded in the source for another target; this target is reported under the same test.] as §1, with “assays.” for “assays. Specifics of each assay are as described below:”

CDK2/CyclinE = CDK2/CyclinE (Homo sapiens (Human), UniProt P24941); assay: CDK2/cyclinE kinase assay, microfluidic kinase detection (Caliper, Nanosyn); assay type: biochemical; details: 12-point dose-response, ATP at Km (100 μM), enzyme 0.28 nM, incubation 1 hr; read-out: CDK2/Cyclin E
Description: as §1
CDK2/CyclinE: Enzyme concentration: 0.28 nM; ATP concentration: 100 μM; Incubation time: 1 hr.

CDK2/CyclinA = CDK2/CyclinA (Homo sapiens (Human), UniProt P24941); assay: CDK2/CycA kinase assay, microfluidic kinase detection (Caliper, Nanosyn); assay type: biochemical; details: 12-point dose-response, ATP at Km (50 μM), enzyme 0.2 nM, incubation 3 hr; read-out: CDK2/Cyclin A
Description: as §1
CDK2/CyclinA: Enzyme concentration: 0.2 nM; ATP concentration: 50 μM; Incubation time: 3 hr.

CDK9/Cyclin T = CDK9/Cyclin T (Homo sapiens (Human), UniProt P50750); assay: CDK9/Cyclin T kinase assay (Biological Table 3); assay type: biochemical
Hs68 cells = assay: Cell population by DNA content (<2N, G0-G1, S, G2-M) as measure of apoptotic cells; assay type: cell-based; details: at every dose administered (FIG. 4)
Source text: FIG. 4 is a bar graph showing the population of cells with a DNA content less than 2N, cells in the G0-G1 phase, cells in the S phase, and cells in the G2-M phase as a way to measure the relative amount of apoptotic cells following administration of control and Compound 28. The population of apoptotic cells after exposure to Compound 28 was greater than 70% at every dose administered. The assay was done in a population of Hs68 cells. * is <2000 events. The Compound number and dose, measured in μM and nM, are shown on the x-axis and the cell population, measured in percent, is shown on the y-axis.

CDK9/CycT, sequence (P50750 whole entry): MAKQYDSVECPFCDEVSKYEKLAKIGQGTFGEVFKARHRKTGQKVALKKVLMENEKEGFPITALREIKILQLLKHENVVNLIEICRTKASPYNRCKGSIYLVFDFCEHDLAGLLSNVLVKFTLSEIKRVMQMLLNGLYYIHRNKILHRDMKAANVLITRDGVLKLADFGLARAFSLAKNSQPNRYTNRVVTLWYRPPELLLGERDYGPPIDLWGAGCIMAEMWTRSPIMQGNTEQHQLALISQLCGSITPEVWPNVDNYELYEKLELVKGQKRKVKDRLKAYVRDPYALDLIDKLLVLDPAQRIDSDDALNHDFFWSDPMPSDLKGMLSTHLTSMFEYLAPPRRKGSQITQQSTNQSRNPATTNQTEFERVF
CDK9/CycT, sequence (O60563 whole entry partner): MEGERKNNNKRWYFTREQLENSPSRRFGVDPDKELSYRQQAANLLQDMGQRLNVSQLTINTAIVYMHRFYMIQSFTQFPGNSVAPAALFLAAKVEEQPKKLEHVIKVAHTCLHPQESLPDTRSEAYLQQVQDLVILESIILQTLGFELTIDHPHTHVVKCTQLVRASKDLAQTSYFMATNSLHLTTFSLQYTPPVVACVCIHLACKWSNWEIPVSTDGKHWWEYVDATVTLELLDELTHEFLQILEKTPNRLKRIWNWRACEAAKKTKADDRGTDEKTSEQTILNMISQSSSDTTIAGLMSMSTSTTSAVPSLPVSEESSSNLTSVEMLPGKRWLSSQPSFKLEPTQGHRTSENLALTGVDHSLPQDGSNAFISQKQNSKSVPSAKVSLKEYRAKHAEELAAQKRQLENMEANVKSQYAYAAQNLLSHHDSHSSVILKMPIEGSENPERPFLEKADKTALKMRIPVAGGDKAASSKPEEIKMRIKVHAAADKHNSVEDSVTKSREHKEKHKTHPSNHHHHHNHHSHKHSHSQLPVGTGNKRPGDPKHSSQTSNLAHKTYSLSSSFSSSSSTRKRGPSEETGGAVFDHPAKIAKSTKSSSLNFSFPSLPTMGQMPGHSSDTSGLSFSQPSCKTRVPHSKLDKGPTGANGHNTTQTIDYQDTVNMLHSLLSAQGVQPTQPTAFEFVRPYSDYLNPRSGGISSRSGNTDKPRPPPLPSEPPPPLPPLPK
CDK7/CycH/MAT1, sequence (P50613 whole entry): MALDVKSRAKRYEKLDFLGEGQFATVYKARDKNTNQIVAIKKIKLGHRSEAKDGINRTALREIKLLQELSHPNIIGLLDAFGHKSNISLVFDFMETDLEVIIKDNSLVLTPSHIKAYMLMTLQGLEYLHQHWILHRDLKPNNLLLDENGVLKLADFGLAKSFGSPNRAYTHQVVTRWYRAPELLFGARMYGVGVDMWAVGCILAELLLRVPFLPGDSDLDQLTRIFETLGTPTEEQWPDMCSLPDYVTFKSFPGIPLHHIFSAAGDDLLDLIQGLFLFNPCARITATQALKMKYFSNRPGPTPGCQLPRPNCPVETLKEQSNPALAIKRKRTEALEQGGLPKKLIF
CDK7/CycH/MAT1, sequence (P51946 whole entry partner): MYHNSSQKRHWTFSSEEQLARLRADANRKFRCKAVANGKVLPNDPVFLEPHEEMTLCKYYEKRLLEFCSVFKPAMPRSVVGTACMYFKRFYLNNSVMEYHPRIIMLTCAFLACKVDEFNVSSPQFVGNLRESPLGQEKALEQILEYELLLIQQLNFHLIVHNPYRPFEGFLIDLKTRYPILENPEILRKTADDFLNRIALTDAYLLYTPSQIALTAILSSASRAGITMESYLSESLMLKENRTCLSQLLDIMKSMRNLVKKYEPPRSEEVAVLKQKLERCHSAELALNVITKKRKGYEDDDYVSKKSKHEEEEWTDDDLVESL
CDK7/CycH/MAT1, sequence (P51948 whole entry partner): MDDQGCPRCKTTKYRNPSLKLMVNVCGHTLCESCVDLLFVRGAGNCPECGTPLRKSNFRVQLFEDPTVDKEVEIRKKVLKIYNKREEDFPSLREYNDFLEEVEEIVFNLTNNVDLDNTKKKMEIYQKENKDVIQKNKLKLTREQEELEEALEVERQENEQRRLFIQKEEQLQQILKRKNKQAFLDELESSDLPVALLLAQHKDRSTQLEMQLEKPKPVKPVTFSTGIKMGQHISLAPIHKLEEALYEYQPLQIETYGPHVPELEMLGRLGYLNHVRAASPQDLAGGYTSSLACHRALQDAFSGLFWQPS
CDK4/CycD, sequence (P11802 whole entry): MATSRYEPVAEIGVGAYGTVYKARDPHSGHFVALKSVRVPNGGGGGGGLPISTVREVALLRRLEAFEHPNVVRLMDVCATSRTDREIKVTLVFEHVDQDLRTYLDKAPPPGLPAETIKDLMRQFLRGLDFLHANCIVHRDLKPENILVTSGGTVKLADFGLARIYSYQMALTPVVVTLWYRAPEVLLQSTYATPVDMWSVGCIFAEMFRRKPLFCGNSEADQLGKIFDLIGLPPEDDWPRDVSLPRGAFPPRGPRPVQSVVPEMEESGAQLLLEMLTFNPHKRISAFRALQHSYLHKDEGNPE
CDK4/CycD, sequence (P24385 whole entry partner): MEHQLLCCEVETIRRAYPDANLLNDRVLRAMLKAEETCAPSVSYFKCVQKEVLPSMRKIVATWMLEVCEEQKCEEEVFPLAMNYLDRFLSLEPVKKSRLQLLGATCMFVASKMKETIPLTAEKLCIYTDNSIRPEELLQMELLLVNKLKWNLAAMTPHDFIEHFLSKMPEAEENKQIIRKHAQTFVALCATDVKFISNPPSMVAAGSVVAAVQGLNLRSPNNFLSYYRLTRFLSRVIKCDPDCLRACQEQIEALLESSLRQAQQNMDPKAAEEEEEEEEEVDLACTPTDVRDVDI
CDK5/p35, sequence (Q00535 whole entry): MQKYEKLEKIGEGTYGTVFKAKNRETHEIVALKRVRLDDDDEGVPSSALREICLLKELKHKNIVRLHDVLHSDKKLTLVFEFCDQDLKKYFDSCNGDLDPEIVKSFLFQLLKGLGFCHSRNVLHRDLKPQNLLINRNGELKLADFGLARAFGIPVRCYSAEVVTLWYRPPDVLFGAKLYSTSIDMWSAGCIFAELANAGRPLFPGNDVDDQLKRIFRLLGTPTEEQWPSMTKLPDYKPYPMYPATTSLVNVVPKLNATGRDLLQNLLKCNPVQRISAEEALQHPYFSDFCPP
CDK5/p35, sequence (Q15078 whole entry partner): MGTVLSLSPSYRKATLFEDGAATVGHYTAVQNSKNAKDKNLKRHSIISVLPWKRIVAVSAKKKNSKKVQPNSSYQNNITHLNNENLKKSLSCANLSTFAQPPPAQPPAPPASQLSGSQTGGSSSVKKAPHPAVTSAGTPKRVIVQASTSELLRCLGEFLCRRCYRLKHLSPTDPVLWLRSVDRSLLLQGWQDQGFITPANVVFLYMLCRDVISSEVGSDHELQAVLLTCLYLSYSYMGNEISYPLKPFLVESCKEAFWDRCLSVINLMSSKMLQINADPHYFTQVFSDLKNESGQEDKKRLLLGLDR
CDK5/p25, sequence (Q00535 whole entry): as the sequence (Q00535 whole entry) above
CDK6/CycD3, sequence (Q00534 whole entry): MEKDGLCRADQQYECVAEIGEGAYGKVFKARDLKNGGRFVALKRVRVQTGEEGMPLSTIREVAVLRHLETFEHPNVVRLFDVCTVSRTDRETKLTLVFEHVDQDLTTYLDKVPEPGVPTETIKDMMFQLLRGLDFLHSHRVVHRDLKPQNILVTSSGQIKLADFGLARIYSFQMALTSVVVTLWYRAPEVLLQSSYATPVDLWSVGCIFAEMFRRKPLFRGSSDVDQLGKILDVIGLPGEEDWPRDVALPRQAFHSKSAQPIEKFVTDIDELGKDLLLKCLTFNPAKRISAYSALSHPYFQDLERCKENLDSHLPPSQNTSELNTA
CDK6/CycD3, sequence (P30281 whole entry partner): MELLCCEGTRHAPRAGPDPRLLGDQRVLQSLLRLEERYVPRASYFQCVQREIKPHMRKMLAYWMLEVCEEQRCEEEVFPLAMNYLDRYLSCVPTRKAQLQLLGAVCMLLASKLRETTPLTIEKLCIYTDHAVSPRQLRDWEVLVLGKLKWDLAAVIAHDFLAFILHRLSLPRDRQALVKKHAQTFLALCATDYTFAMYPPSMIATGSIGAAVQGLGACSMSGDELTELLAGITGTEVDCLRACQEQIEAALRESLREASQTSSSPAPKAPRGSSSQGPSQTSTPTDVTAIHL
CDK9/Cyclin T, sequence (P50750 whole entry): as the sequence (P50750 whole entry) above
CDK9/Cyclin T, sequence (O60563 whole entry partner): as the sequence (O60563 whole entry partner) above
CDK4/CyclinD1, sequence (P11802 whole entry): as the sequence (P11802 whole entry) above
CDK4/CyclinD1, sequence (P24385 whole entry partner): as the sequence (P24385 whole entry partner) above
CDK6/Cyclin D3, sequence (Q00534 whole entry): as the sequence (Q00534 whole entry) above
CDK6/Cyclin D3, sequence (P30281 whole entry partner): as the sequence (P30281 whole entry partner) above

| IC50 (CDK4/CycD) [µM] | IC50 (CDK6/CycD3) [µM] | IC50 (CDK2/CycE) [µM] | IC50 (CDK2/CycA) [µM] | IC50 (CDK5/p35) [µM] | IC50 (CDK5/p25) [µM] | IC50 (CDK7/CycH/MAT1) [µM] | IC50 (CDK9/CycT) [µM] | IC50 (CDK4/CyclinD1) [µM] | IC50 (CDK6/Cyclin D3) [µM] | IC50 (CDK2/CyclinE) [µM] | IC50 (CDK2/CyclinA) [µM] | IC50 (CDK9/Cyclin T) [µM] | Structure (SMILES) | population of apoptotic cells (Hs68 cells) |
| --- | --- | --- | --- | --- | --- | --- | --- | --- | --- | --- | --- | --- | --- | --- |
| 4.7 | 1.8 | > 100 | > 100 | > 100 | > 100 | > 100 | > 100 | – | – | – | – | – | CN1CCN(c2ccc(Nc3ncc4c(n3)N3CCCCC3CC4=O)nc2)CC1 (stereo not drawn) [Compound 7, 2-((5-(4-methylpiperazin-1-yl)pyridin-2-yl)amino)-6,6a,7,8,9,10-hexahydro-5H-pyrimido[5,4-c]quinolizin-5-one] | – |
| 2.6 | 1.8 | > 100 | > 100 | > 100 | > 100 | > 100 | > 100 | – | – | – | – | – | CN1CCN(c2ccc(Nc3ncc4c(n3)N3C(=NCCC35CCCCC5)C=C4)nc2)CC1 [Compound 9, N-(5-(4-methylpiperazin-1-yl)pyridin-2-yl)-8′,9′-dihydrospiro[cyclohexane-1,10′-pyrido[1,6-a:2,3-d′]dipyrimidin]-2′-amine] | – |
| – | – | – | – | – | – | – | – | 0.02 | 0.06 | > 100 | 13.5 | 1 | CN1CCN(c2cnc(Nc3ncc4cc5n(c4n3)C3(CCCCC3)CNC5=O)nc2)CC1 [Compound 28, 2′-((5-(4-Methylpiperazin-1-yl)pyrimidin-2-yl)amino)-7′,8′-dihydro-6′H-spiro[cyclohexane-1,9′-pyrazino[1′,2′:1,5]pyrrolo [2,3-d]pyrimidin]-6′-one] | greater than 70% |

| Structure (SMILES) | IC50 (CDK4/CycD) [µM] | IC50 (CDK6/CycD3) [µM] | IC50 (CDK2/CycE) [µM] | IC50 (CDK2/CycA) [µM] | IC50 (CDK5/p35) [µM] | IC50 (CDK5/p25) [µM] | IC50 (CDK7/CycH/MAT1) [µM] | IC50 (CDK9/CycT) [µM] | IC50 (CDK4/CyclinD1) [µM] | IC50 (CDK6/Cyclin D3) [µM] | IC50 (CDK2/CyclinE) [µM] | IC50 (CDK2/CyclinA) [µM] | IC50 (CDK9/Cyclin T) [µM] | population of apoptotic cells (Hs68 cells) |
| --- | --- | --- | --- | --- | --- | --- | --- | --- | --- | --- | --- | --- | --- | --- |
| CCOC(=O)C1C(=O)c2cnc(Nc3ccc(N4CCN(C)CC4)cn3)nc2N2CCCCC12 (stereo not drawn) [Compound 8, ethyl 2-((5-(4-methylpiperazin-1-yl)pyridin-2-yl)amino)-5-oxo-6,6a,7,8,9,10-hexahydro-5H-pyrimido[5,4-c]quinolizine-6-carboxylate] | 4.1 | 3.5 | > 100 | > 100 | > 100 | > 100 | > 100 | > 100 | – | – | – | – | – | – |

— patent US10829490B2, “Substituted dihydropyrazino[1 ′,2′:1,5]pyrrolo[2,3-d]pyrimidine-based antiproliferative agents” (G1 Therapeutics, Inc., priority 2016, dated 2020)
